Experimental data taken from US20230212216A1, “SYNTHESIS OF LACTONE DERIVATIVES AND THEIR USE IN THE MODIFICATION OF PROTEINS” (priority 2019, published 2023).
Read-outs that look alike come from different tables or passages of the source. Where no end group is shown, it is not given here.

Tests used:
[1] = system: N-terminally gluconoyl-labelled Beltide-1 derivative peptide PP6; assay: Boron-containing reagents to modulate reversibility (heat-accelerated deacylation); assay type: physicochemical; details: 5 mM additive, 50 μM peptide; for Remaining gluconoyl-label, pH 7.5 after 15 h at 50° C.: 50 mM HEPES/NaOH buffer; for Remaining gluconoyl-label, pH 6.8 after 15 h at 50° C.: 50 mM phosphate/KOH buffer
Description: To explore the reversibility modulating effect of various boron-containing molecules, a small library of reagents was tested at pH 7.5 (50 mM HEPES/NaOH buffer) and pH 6.8 (50 mM phosphate/KOH buffer).
Reaction supplemented with 5 mM of additive; calculated as the ratio of the TIC for the labelled divided by the sum of TICs of both labelled and unlabeled species.

[2] = system: GDL acylated G-H6-Beltide-1; assay: Effect of copper ions on reversibility of acylation; assay type: physicochemical; details: various CuSO4 concentrations, pH 7.5, 37° C.
Description: FIG. 3: Reversibility of GDL:G-H6-Beltide-1 in the presence of various CuSO4 and EDTA concentrations at pH 7.5. GDL acylated G-H6-Beltide-1 was produced as before, extra GDL was removed by C18 reverse phase purification and the acylated peptide (20 μM) was stored in 50 mM HEPES (NaOH) buffer supplemented with various concentrations of CuSO4 and EDTA at 37° C. Change in acylation status was monitored by MALDI-TOF MS TIC and is reported as the relative m/z ratio of the acylated (m1) and non-acylated species (m2) ([m1/z/(m1/z+m2/z)]*100%).
1 mM G-H6-Beltide-1 (˜1 mg of peptide) was acylated with 100 mM GDL in 200 mM HEPES (NaOH) pH 7.5 for 1 h at room temperature in a total volume of ˜300 μL. Upon addition of buffer to peptide but before addition of GDL, precipitation was clearly observed. This precipitation may be due to the theoretical pI of G-H6-Beltide-1 being close to pH 7.5, or because G-H6-Beltide-1 is a Beltide-1 variant. Beltide-1 is known to form nanodiscs in solution upon contact with membrane proteins or lipid components (Midtgaard et al. 2014; Martos-Maldonado et al. 2018). GDL was added to 100 mM from a freshly prepared 1 M stock solution. The solution remained cloudy. […] The acylated peptide was analyzed by MALDI-MS and initial acylation extent was estimated to be ˜96%, stored at −20° C. until further usage. […]

[3] = system: GDL-acylated GSS-H6-Beltide-1 peptide; assay: Effect of nickel ions on reversibility of acylation; assay type: physicochemical; details: 0.01-1 mM NiSO4, pH 7.5, 37° C., up to day 7
Description: GSS-H6-Beltide-1 peptide was GDL-acylated and extra GDL was removed via C18 SepPack chromatography. GDL-acylated peptide was dissolved in 100 mM HEPES (NaOH), pH 7.5, 10% ACN (v/v) to a final concentration of ˜100 μM and aliquoted into 0.5 mL LoBind (Eppendorf) microcentrifuge tubes. NiSO4 was supplemented to 0, 0.01, 0.1, and 1 mM final concentration from a 100 mM NiSO4 stock in H2O. A control sample was supplemented with a pre-mixed solution of NiSO4 and EDTA, to give a final concentration of 1 mM NiSO4 and 5 mM EDTA [stock solution 10 mM NiSO4 and 50 mM EDTA (NaOH neutralized)]. The samples (50 μL volume each) were kept in a water bath at 37° C. Aliquots of 2 μL were taken on day 1, 3, 5, and 7, mixed with 10 μL of 5% acetic acid, purified by C18 ZipTip chromatography and analyzed by MALDI-TOF-MS instrumentation.

[4] = system: GDL-acylated GSS-H6-Beltide-1 peptide; assay: Effect of zinc ions on reversibility of acylation; assay type: physicochemical; details: day 7
Description: GSS-H6-Beltide-1 peptide was GDL-acylated and extra GDL was removed via C18 SepPack chromatography. GDL:peptide was dissolved in 100 mM HEPES (NaOH), pH 7.5 with or without ZnSO4 (0.2 mM and 2 mM) to a final concentration of ˜100 μM. ACN was added to 10% v/v to reduce possible nanodisc formation and precipitation of the peptide to the plastic microcentrifuge wall. The reaction mixtures (100 μL volume each) were kept in a water bath at 37° C. Aliquots of 2 μL were taken at day 3, mixed with 10 μL of 5% acetic acid, purified by C18 ZipTip chromatography and analyzed by MALDI-TOF-MS instrumentation. […] The remaining reaction mixture (80 μL) was acidified by adding 50% (v/v) acetic acid. The amount of acetic acid to be added was calculated as 20% of the remaining reaction volume [final concentration 7.57% acetic acid v/v]. Likewise, 10% reaction volume of 100% acetonitrile were added (final concentration acetonitrile ˜16.6% v/v) and the reaction was mixed by quick vortexing. Of this mixture, 15 μL aliquots were processed via C18 ZipTip chromatography and analyzed by MALDI-TOF-MS instrumentation. We speculate that the peptide had bound to the microcentrifuge wall and assumed that the precipitation affected both acylated and non-acylated species equally.

[5] = system: 6-AGDL acylated GSS-H6-Beltide-1
Description: The volume was then made up to 15 mL to give a 1 M stock solution.
pH 6 buffer was made by preparing a 1 M stock solution of citric acid monohydrate and by making a solution of 1 M sodium citrate dihydrate. The two solutions were mixed to give a 1 M stock solution of pH 6.
pH 7.5 buffer was made by mixing a 1 M stock solution of potassium phosphate monobasic with 1 M solution of potassium phosphate dibasic to give a pH of 7.5.
pH 8.8 buffer was prepared by titrating 1 M solution of acetic acid with ammonium solution to give pH 8.8.
20 μM 6-AGDL modified peptide was stored in 100 μL aliquots in 200 mM buffer as indicated. The vials (triplicates) were incubated in a 37° C. water bath throughout the experiment and were retrieved for sample acquisition for <30 mins at room temperature before they were returned to the water bath.
10 μL of subsamples for pH 4, 6 and 8.8 were acidified with 5 μL of 20% (v/v) acetic acid and subjected to C18 ZipTip purification. Samples were analyzed in positive reflectron mode with MALDI-TOF MS.
pH 7.5 samples were stored in the presence of 10% ACN (v/v) to counteract precipitation. For pH 7.5 samples, 15 μL aliquots were taken for each time point and desalted using 0.1% TFA-70% ACN/0.1% TFA C18 Zip-Tip procedure. 0.5 μL of the Eluate was mixed 1:1 with C1CCA matrix mixture and spotted onto a MALDI steel target prior to detection in reflector positive mode MALDI-TOF MS.

serine protease trypsin = details: 50 mM boric acid
[6] = Reversibility of 6-AGDL acylated G-H6 and non-His-tagged peptides; assay type: physicochemical; details: 6-AGDL acylated peptide, 14 days at room temperature, 1M HEPES pH 7.5
Description: 100 μM of G-H6-Beltide-1, GGKWSKR-Beltide-1 and GGTYSDH-Beltide-1 peptides were reacted at 4° C. with 6-AGDL in 1M HEPES, pH 7.5 by sequentially adding 100 mM 6-AGDL twice in 3 h intervals. Extra 6-AGDL was not removed, and the samples were stored at room temperature throughout the experiment.
2 μL from each sample were taken at each time point except for day 14. 10 μL of 2% acetic acid was added to each timepoint sample and the mixtures were desalted by C18 ZipTip chromatography. Eluate was analyzed by MALDI-TOF MS as before.
At day 14 the remaining samples underwent recovery procedure where all of the reaction mixtures were acidified by adding 20% of reaction volume of 50% (v/v) acetic acid [final concentration 7.57% acetic acid (v/v)] and then adding 10% reaction volume of 100% acetonitrile [final concentration ACN […]]. Of this mixture, 15 μL aliquots were taken, cleaned by ZipTip C18 Chromatography and analyzed by MALDI-TOF-MS instrumentation.

Pseudovirus = assay: Pseudovirion neutralization assay; assay type: cell-based, SARS-CoV-2; details: mice sera day 42, after a total of 3 immunizations
Description: The conjugate material was then used to immunize mice at 10 μg per dose formulated in AddaVax (Invivogen) according to the manufacturer on Day 0. Boosts with the same dose and formulation were performed on day 14 and day 28. Sera samples were taken before each immunization for immunological studies. Animals were sacrificed on day 42.
Pseudovirion neutralization assays were performed with samples obtained at day 42 according to standard procedures known in the art.

[7] = system: non-activated HEK-produced RBD; assay: Endpoint anti-RBD ELISA of sera of immunized mice; set-up: species or system SARS-CoV-2; details: in vivo

O=Cc1ccccc1B(O)O [2-formylphenylboronic acid]
Remaining gluconoyl-label, pH 7.5 after 15 h at 50° C. [1]: ~99% | Remaining gluconoyl-label, pH 6.8 after 15 h at 50° C. [1]: ~95%

O=Cc1ccc(B(O)O)cc1 [4-formylphenylboronic acid]
Remaining gluconoyl-label, pH 7.5 after 15 h at 50° C. [1]: ~95% | Remaining gluconoyl-label, pH 6.8 after 15 h at 50° C. [1]: ~46%

O=S(=O)([O-])[O-].[Cu+2] [CuSO4]
rate of reversibility [2]: decreasing rate of reversibility as a function of increasing CuSO4 concentration

O=S(=O)([O-])[O-].[Ni+2] [NiSO4]
reversibility of acylation [3]: seemingly abolished reversibility

O=S(=O)([O-])[O-].[Zn+2] [ZnSO4]
remaining gluconoylation ([4]; 0.2 mM ZnSO4, pH 7.5, 37° C.): ~80% | remaining gluconoylation ([4]; 2 mM ZnSO4, pH 7.5, 37° C.): ~75%

OB(O)O [boric acid, Boric acid]
Remaining gluconoyl-label, pH 7.5 after 15 h at 50° C. [1]: ~69% | Remaining gluconoyl-label, pH 6.8 after 15 h at 50° C. [1]: ~8% | reversibility of acylation ([5]; >50 mM boric acid, pH 8.8, 7 days, 37° C.): effectively inhibited | reversibility of acylation ([5]; pH 4, 37° C.): no effect was observed | reversibility of acylation ([5]; pH 6, 37° C.): modulated the reversibility | inhibition of trypsin (serine protease trypsin): did not measurably inhibit

CB(O)O [methylboronic acid]
Remaining gluconoyl-label, pH 7.5 after 15 h at 50° C. [1]: ~59% | Remaining gluconoyl-label, pH 6.8 after 15 h at 50° C. [1]: ~6%

OB(O)c1ccccc1 [phenylboronic acid]
Remaining gluconoyl-label, pH 7.5 after 15 h at 50° C. [1]: ~83% | Remaining gluconoyl-label, pH 6.8 after 15 h at 50° C. [1]: ~31%

OB1OCc2cc(F)ccc21 [tavaborole, 5-Fluoro-1,3-dihydro-1-hydroxy-2,1-benzoxaborole]
Remaining gluconoyl-label, pH 7.5 after 15 h at 50° C. [1]: ~87% | Remaining gluconoyl-label, pH 6.8 after 15 h at 50° C. [1]: ~87.9%

GGKWSKRDWLKAFYDKVAEKLKEAF [GGKWSKR-Beltide-1]
remaining acylation [6]: ~64%

GGTYSDHDWLKAFYDKVAEKLKEAF [GGTYSDH-Beltide-1]
remaining acylation [6]: 75%

GHHHHHHDWLKAFYDKVAEKLKEAF [PP1]
remaining acylation [6]: 27%

Qbeta: Qbeta VLPs (SEQ ID NO: 86) produced in E. coli
% of neutralization at dilution 1:300 (Pseudovirus): 17.24% | anti-RBD response (ELISA titers) after a single injection [7]: did not show a measurable response
